This note sets out measurements from US8999956B2, “N-[(het)arylalkyl)] pyrazole(thio)carboxamides and their heterosubstituted analogues” (Bayer Intellectual Property GmbH, priority 2010, dated 2015).

Broadly, the chromatographic logP is a lipophilicity value derived from retention on a column. Read a low chromatographic logP as lower lipophilicity.

Where two headings read alike, the source gives them in different places.

One data set has as its system Phakopsora pachyrhizi. Kind of data set: In vivo protective test on Phakopsora pachyrhizi (soybeans). The settings on record: Table N, 250 ppm of active ingredient, evaluated 11 days after inoculation.
The nature of data set [1]: log P by HPLC on reversed-phase column (EEC Directive 79/831 Annex V.A8). Type of data set: physicochemical. The procedure:
In table 1, the log P values were determined in accordance with EEC Directive 79/831 Annex V.A8 by HPLC (High Performance Liquid Chromatography) on a reversed-phase column (C18), using the method described below: Temperature: 40° C.; […]

In the next data set the test system is Pyrenophora teres. Kind of data set: In vivo preventive test on Pyrenophora teres (barley). The settings on record: 500 ppm of active ingredient, evaluated 7-9 days after inoculation. The essentials: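 Preventive test: young barley plants received a water-diluted spray of compound formulated with DMF solvent plus alkylaryl polyglycol ether emulsifier, at the stated rate. Inoculation with an aqueous spore suspension of Pyrenophora teres followed one day after spraying.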

Data set [2] deals with Fusarium nivale (var. majus). Kind of data set: In vivo preventive test on Fusarium nivale (wheat). The conditions noted are these: 500 ppm of active ingredient, evaluated 5 days after inoculation. The procedure: (§1) Solvent: 49 parts by weight of N,N-dimethylacetamide Emulsifier: 1 part by weight of alkylaryl polyglycol ether To produce a suitable preparation of active compound, 1 part by weight of active compound or active compound combination is mixed with the stated amounts of solvent and emulsifier, and the concentrate is diluted with water to the desired concentration. To test for preventive activity, young plants are sprayed with the preparation of active compound or active compound combination at the stated rate of application. After the spray coating has been dried, the plants are slightly injured by using a sandblast and afterwards they are sprayed with a conidia suspension of Fusarium nivale (var. majus).

A further data set relates to Venturia inaequalis. Kind of data set: In vivo preventive test on Venturia inaequalis (apple scab). The settings on record: 100 ppm of active ingredient, evaluated 10 days after inoculation. The essentials:
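Young plants sprayed preventively at the stated application rate with compound dissolved in acetone/N,N-dimethylacetamide plus alkylaryl polyglycol ether emulsifier and diluted with water to the desired concentration.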

The subject of another data set is Alternaria solani. Kind of data set: In vivo preventive test on Alternaria solani (tomato). The settings on record: 500 ppm of active ingredient, evaluated 7 days after inoculation. The method in brief: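 Preventive set-up: Alternaria solani spores, as aqueous suspension, applied to young plants one day after spraying. Spray contained active compound formulated with N,N-dimethylformamide and emulsifier, water-diluted to the desired application rate.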

Data set [3] concerns Blumeria graminis fsp. hordei. Briefly: In vivo preventive test on Blumeria graminis (barley). The settings on record: 500 ppm of active ingredient, evaluated 7 days after inoculation. The procedure: as §1, with “dusted” for “slightly injured by using a sandblast and afterwards they are sprayed”, “spores” for “a conidia suspension”, “Blumeria graminis fsp. hordei.” for “Fusarium nivale (var. majus).”

For the next data set, the system named is Puccinia triticina. Briefly: In vivo preventive test on Puccinia triticina (wheat).
A further data set concerns Sphaerotheca fuliginea. Briefly: In vivo preventive test on Sphaerotheca fuliginea (cucumber). The conditions noted are these: 500 ppm of active ingredient, evaluated 7 days after inoculation. The method in brief:
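Young cucumber plants sprayed with compound (in DMF with alkylarylpolyglycolether emulsifier, diluted in water) at the stated application rate. Inoculated one day later with aqueous Sphaerotheca fuliginea spore suspension. Plants then held in greenhouse at approximately 23° C and approximately 70% relative humidity.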

The next data set relates to Septoria tritici. Kind of data set: In vivo preventive test on Septoria tritici (wheat). The conditions noted are these: 500 ppm of active ingredient, evaluated 21 days after inoculation. The procedure:
as §1, with “are” for “are slightly injured by using a sandblast and afterwards they are”, “spore” for “conidia”, “Septoria tritici.” for “Fusarium nivale (var. majus).”

The test system of another data set is Aspergillus parasiticus. Kind of data set: microbe, parasite or virus in culture. It is filed as cell-based.
For a further data set, the system named is Cochliobolus miyabeanus. Briefly: In vivo protective test on Cochliobolus miyabeanus (rice). The settings on record: Table M, 250 ppm of active ingredient, evaluated 4 days after inoculation.
The test system of data set [4] is aflatoxines produced by Aspergillus parasiticus. Kind of data set: microbe, parasite or virus in culture. It is filed as cell-based.
A further data set has as its system Botrytis cinerea. Briefly: In vivo preventive test on Botrytis cinerea (beans). The method in brief:
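Young bean plants sprayed preventively with compound in acetone/dimethylacetamide/emulsifier diluted in water; after drying, each leaf inoculated with 2 agar pieces bearing Botrytis cinerea. Kept dark at 20° C, 100% humidity; lesion size scored at 2 days as % efficacy (0% = untreated, 100% = no disease).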

Another data set relates to Uromyces appendiculatus. Kind of data set: In vivo preventive test on Uromyces appendiculatus (beans). The settings on record: 100 ppm of active ingredient, evaluated 10 days after inoculation. The procedure:
Solvent: 24.5 parts by weight of acetone • 24.5 parts by weight of N,N-dimethylacetamide Emulsifier: 1 part by weight of alkylaryl polyglycol ether To produce a suitable preparation of active compound, 1 part by weight of active compound is mixed with the stated amounts of solvent and emulsifier, and the concentrate is diluted with water to the desired concentration. To test for preventive activity, young plants are sprayed with the preparation of active compound at the stated rate of application.

The test system of a further data set is Leptosphaeria nodorum. Briefly: In vivo preventive test on Leptosphaeria nodorum (wheat). The conditions noted are these: 500 ppm of active ingredient, evaluated 7-9 days after inoculation. The method in brief: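 Plants were inoculated with aqueous L. nodorum spores one day after a protective spray. The spray contained the compound at the stated rate, as a water-diluted concentrate in N,N-dimethylacetamide plus alkylaryl polyglycol ether emulsifier.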

[5] abbreviates: Table K, 500 ppm of active ingredient, evaluated 8 days after inoculation.
Setting [6] is: Table L, 500 ppm of active ingredient, lesion size 2 days after inoculation.

Take `Cn1nc(C(F)F)c(C(=O)NC2CCCCC2CCC(C)(C)C)c1F` (single isomer, unassigned) [Example 358]: the Efficacy was found to be 95% in the data set with Phakopsora pachyrhizi; 100% in the data set on Pyrenophora teres; 100% in [2]; 100% in the data set with Venturia inaequalis; 100% with Alternaria solani; 100% in [3]. Also, the Efficacy amounted to 100% in the data set with Puccinia triticina (setting [5]), 100% in the data set with Sphaerotheca fuliginea and 80% with Septoria tritici. The logP in data set [1] came to 4.51 isomer B.

`CC(CC(C)(C)C)C1CCCCC1NC(=O)c1c(C(F)F)nn(C)c1F` (single isomer, unassigned) [Example 360] displayed a logP in data set [1] of 4.85 isomer A. The Efficacy stood at 95% in the data set with Pyrenophora teres; 86% in data set [2]; 94% in the data set on Cochliobolus miyabeanus; 100% in the data set with Venturia inaequalis; 95% in the data set on Alternaria solani; 100% in data set [3]. Further, the Efficacy is 100% with Puccinia triticina (setting [5]), 100% with Sphaerotheca fuliginea and 90% with Septoria tritici. Also, the “% Inhibition of fungal growth at 50 μM” value in the data set on Aspergillus parasiticus (50 µM) is 96%. Besides, in data set [4], the “% Inhibition of Aflatoxin at 50 μM” value amounted to 100%.

`CC(N(C(=O)c1c(C(F)F)nn(C)c1F)C1CC1)C(C)(C)Cc1ccccc1` (stereo not shown) [Example 9] displayed a logP in [1] of 4.06. Besides, the Efficacy in the data set on Pyrenophora teres turned out to be 100%; in [2] it was 100%; in the data set with Venturia inaequalis, 100%; with Botrytis cinerea (setting [6]), 100%; in the data set on Alternaria solani, 90%; in data set [3] it was 100%. Moreover, the Efficacy came to 94% in the data set on Uromyces appendiculatus, 95% with Sphaerotheca fuliginea, 100% in the data set with Leptosphaeria nodorum and 100% in the data set with Septoria tritici.

`CC(CCc1ccc(Cl)cc1Cl)N(C(=O)c1c(C(F)F)nn(C)c1F)C1CC1` (stereo not shown) [Example 184] yielded a logP in data set [1] of 4.56. Moreover, the Efficacy in the data set with Pyrenophora teres was found to be 100%; in [2] it was 100%; with Venturia inaequalis, 100%; with Alternaria solani it was 90%; in data set [3], 100%; with Puccinia triticina (setting [5]), 90%. In addition, the Efficacy with Uromyces appendiculatus worked out at 100%; in the data set with Sphaerotheca fuliginea it was 100%; in the data set on Leptosphaeria nodorum, 95%; in the data set with Septoria tritici it was 100%. In addition, in the data set with Aspergillus parasiticus, the “% Inhibition of fungal growth at 50 μM” value worked out at 100%. In data set [4], the “% Inhibition of Aflatoxin at 50 μM” value was 100%.

Regarding `Cn1nc(C(F)F)c(C(=O)N(CC2CCCCC2c2ccccc2Cl)C2CC2)c1F` (stereo not shown) [Example 241], the Efficacy with Phakopsora pachyrhizi came to 99%; in the data set with Pyrenophora teres, 100%; in the data set on Venturia inaequalis, 100%; in the data set on Botrytis cinerea (setting [6]) it was 99%; in the data set on Alternaria solani it was 100%; with Puccinia triticina (setting [5]) it was 100%. Besides, the Efficacy was 100% in the data set with Uromyces appendiculatus, 100% with Sphaerotheca fuliginea, 80% in the data set on Leptosphaeria nodorum and 100% in the data set with Septoria tritici. The logP in data set [1] is 4.67. Besides, the “% Inhibition of fungal growth at 50 μM” value in the data set on Aspergillus parasiticus is reported as 97%. For the same compound, the “% Inhibition of Aflatoxin at 50 μM” value in data set [4] stood at 100%.

`Cn1nc(C(F)F)c(C(=O)N(CC2CCCCC2c2ccc(Cl)cc2Cl)C2CC2)c1F` (stereo not shown) [Example 242]: the Efficacy was found to be 99% with Phakopsora pachyrhizi; 100% in the data set on Pyrenophora teres; 100% in the data set on Venturia inaequalis; 95% in the data set on Botrytis cinerea (setting [6]); 100% in the data set on Alternaria solani; 100% in the data set on Puccinia triticina (setting [5]). The Efficacy with Uromyces appendiculatus and in the data set with Sphaerotheca fuliginea was 100% in each case. In data set [1], this compound returned a logP of 5.31. Moreover, the “% Inhibition of fungal growth at 50 μM” value in the data set with Aspergillus parasiticus is recorded as 100%. The “% Inhibition of Aflatoxin at 50 μM” value in data set [4] is on record as 100%.

As to `Cn1nc(C(F)F)c(C(=O)N(C2CC2)C2CCCC(c3ccccc3)C2)c1F` (stereo not shown) [Example 256], the Efficacy in the data set with Phakopsora pachyrhizi is listed as 85%; in the data set on Pyrenophora teres, 100%; in data set [2] it was 100%; in the data set on Venturia inaequalis, 100%; in the data set with Botrytis cinerea (500 ppm of active ingredient, lesion size 2 days after inoculation), “at least 90%”; with Botrytis cinerea (Table L5, dose 500 ppm, comparison with des-fluoro analogues), 93%. Besides, the Efficacy is reported as 93% in the data set with Botrytis cinerea (setting [6]); 93% with Alternaria solani; “at least 95%” with Puccinia triticina (500 ppm of active ingredient, evaluated 8 days after inoculation); 95% in the data set with Puccinia triticina (Table K5, dose 500 ppm, comparison with des-fluoro analogues); 95% with Puccinia triticina (setting [5]); 100% in the data set with Uromyces appendiculatus. In addition, the Efficacy worked out at 95% in the data set with Leptosphaeria nodorum and 100% in the data set on Septoria tritici. This compound came in with a logP in data set [1] of 4.01. For the same compound, the “% Inhibition of fungal growth at 50 μM” value in the data set with Aspergillus parasiticus came to 79%. In addition, the “% Inhibition of Aflatoxin at 50 μM” value in data set [4] stood at 96%.

As for `Cn1nc(C(F)F)c(C(=O)NC2CCCC(CCC(C)(C)C)C2)c1F` (stereo not shown) [Example 324, 3-(difluoromethyl)-N-[3-(3,3-dimethylbutyl)cyclohexyl]-5-fluoro-1-methyl-1H-pyrazole-4-carboxamide], the chromatographic logP in data set [1] (log P) and in [1] (logP) was 4.8 throughout. Moreover, the Efficacy in the data set on Pyrenophora teres amounted to 94%; in [2] it was 100%; in the data set with Cochliobolus miyabeanus, 97%; in the data set with Alternaria solani, 90%. Moreover, the pest or weed control at 500 ppm in the data set on Puccinia triticina (Puccinia triticina, 192 h, Table K, 500 ppm of active ingredient, evaluated 8 days after inoculation, read-out: Efficacy) came out at 100%.

Take `CC(C)CCC1CCCCC1NC(=O)c1c(C(F)F)nn(C)c1F` (stereo not shown) [Example 333]: the Efficacy with Phakopsora pachyrhizi was 97%; in the data set on Pyrenophora teres, 100%; in data set [2], 100%; with Venturia inaequalis it was 99%; in the data set with Alternaria solani, 100%; in [3], 100%. For the same compound, the Efficacy in the data set on Puccinia triticina (setting [5]) was found to be 90%; in the data set with Sphaerotheca fuliginea, 100%; with Leptosphaeria nodorum, 80%; in the data set on Septoria tritici, 100%. Further, the logP in [1] stood at 4.22. Further, in the data set on Aspergillus parasiticus, the “% Inhibition of fungal growth at 50 μM” value was found to be 92%. Also, the “% Inhibition of Aflatoxin at 50 μM” value in data set [4] was determined as 100%.

For the compound `Cn1nc(C(F)F)c(C(=O)NC2CCCCC2CC[Si](C)(C)C)c1F` (stereo not shown) [Example 353], the Efficacy in the data set with Phakopsora pachyrhizi is 85%; with Pyrenophora teres, 95%; in data set [2] it was 100%; in the data set on Venturia inaequalis it was 99%; with Alternaria solani, 95%; in data set [3], 90%. Moreover, the Efficacy in the data set with Puccinia triticina (setting [5]) came out at 70%; with Septoria tritici, 80%. In data set [1], this compound showed a logP of 4.70. Further, the “% Inhibition of fungal growth at 50 μM” value in the data set on Aspergillus parasiticus amounted to 85%. In data set [4], the “% Inhibition of Aflatoxin at 50 μM” value was found to be 99%.
